Reference: patent US20040248848A1, “Use of specific dose of fondaparinux sodium for the treatment of acs” (priority 2004, published 2004)

Key:
[1] = system: patients with unstable angina/non Q-wave MI; experiment: Dose ranging study in unstable angina: primary efficacy evaluation (composite of death, AMI, recurrent ischemia); type: in vivo, human; conditions: for AMI n (%) / Composite endpoint n (%) / Death (not related to bleeding) n (%) / Recurrent ischemia n (%) (Mortara data) / Symptomatic recurrent ischemia n (%): first active injection to Day 9, per protocol excluding insufficient Mortara data
Experimental: (§1) A double blind, randomized, controlled dose ranging study was performed testing in parallel four fondaparinux sodium daily dose levels (2.5, 4.0, 8.0 and 12.0 mg) and a dose regimen of enoxaparin (1 mg/Kg bid=twice daily). Efficacy (composite parameter of death, AMI, recurrent ischemia) and safety of the respective doses of fondaparinux sodium were assessed in patients with unstable angina/non Q-wave MI. Further, safety and efficacy of the four different dose levels of fondaparinux sodium and enoxaparin 1 mg/Kg bid were compared.
The primary efficacy endpoint consisted of the composite of the following ischeric events starting from first active drug administration up to and including Day 9 (with Day 1 being the day of first active drug administration):
Death from any cause except for death related to bleeding
Acute myocardial infarction (AMI), according to the definition in the protocol
Symptomatic recurrent ischemia (excluding episodes of ischemia during or at any time after CABG (Coronary Artery Bypass Graft) or PTCA (Percutaneous Transluminal Coronary Angioplasty)) or any ischemia on the 48-h continuous 12-lead ECG monitoring (Mortara).
In the event a patient experienced one of these events, the binary composite outcome was regarded as a treatment failure. In contrast, if none of the above events applied, the composite ischemic outcome was considered as a treatment success.
(§2) The primary analysis for efficacy parameters was performed on the per protocol (PP) population. The choice of the patients to be excluded from PP population for efficacy analyses was defined before unblinding the trial.

[2] = system: patients with unstable angina/non Q-wave MI; experiment: Dose ranging study: secondary efficacy analysis (clinical endpoints); type: in vivo, human; conditions: for AMI / Death (not related to bleeding) / Death or AMI / Death or AMI or recurrent ischemia (Symptomatic) / Recurrent Ischemia (Symptomatic): first active injection to Day 9, per protocol including insufficient Mortara data
Experimental: as §1, §2

[3] = system: patients with unstable angina/non Q-wave MI; experiment: Dose ranging study: safety analysis, adjudicated bleeding events; type: in vivo; conditions: for Any bleeding event n (%) / Major bleeding event n (%) / Minor bleeding event n (%): first active injection to Day 9, all treated patients
Experimental: as §1
The primary safety endpoint was the incidence of major bleeding from first active drug administration up to and including Day 9 as adjudicated by a blinded Central Adjudication Committee (CAC). The incidence of any major or minor bleeding was considered as a secondary safety endpoint.
(§3) The safety analysis was performed on the ‘all treated patients’ (ATP) population.

[4] = system: patients with unstable angina/non Q-wave MI; experiment: Dose ranging study: safety analysis, deaths; type: in vivo, human; conditions: for Patients with SAE from First injection Leading to death after day 30 / Patients with SAE from First injection Leading to death between first injection and day 30 / Total deaths reported: all treated patients; for Total deaths reported: first active injection onwards
Experimental: as §1
Other safety endpoints include deaths and all adverse events (latter not reported here).
as §3

CO[C@H]1O[C@H](COS(=O)(=O)O)[C@@H](O[C@@H]2O[C@@H](C(=O)O)[C@@H](O[C@H]3O[C@H](COS(=O)(=O)O)[C@@H](O[C@@H]4O[C@H](C(=O)O)[C@@H](O[C@H]5O[C@H](COS(=O)(=O)O)[C@@H](O)[C@H](O)[C@H]5NS(=O)(=O)O)[C@H](O)[C@H]4O)[C@H](OS(=O)(=O)O)[C@H]3NS(=O)(=O)O)[C@H](O)[C@H]2OS(=O)(=O)O)[C@H](O)[C@H]1NS(=O)(=O)O [Fondaparinux sodium, methyl O-(2-deoxy-2-sulfoamino-6-O-sulfo-α-D-glucopyranosyl)-(1→4)-O-(β-D-glucopyranosyluronic acid)-(1→4)-O-(2-deoxy-2-sulfoamino-3,6-di-O-sulfo-α-D-glucopyranosyl)-(1→4)-O-(2-O-sulfo-α-L-idopyranosyluronic acid)-(1→4)-2-deoxy-2-sulfoamino-6-O-sulfo-α-D-glucopyranoside]
AMI n (%) ([1]; 2.5 mg daily (N = 203)): 1 (0.5%) n (%) | Composite endpoint n (%) ([1]; 2.5 mg daily (N = 203)): 61 (30.0%) n (%) | Death (not related to bleeding) n (%) ([1]; 2.5 mg daily (N = 203)): 2 (1.0%) n (%) | Recurrent ischemia n (%) (Mortara data) ([1]; 2.5 mg daily (N = 203)): 47 (23.2%) n (%) | Symptomatic recurrent ischemia n (%) ([1]; 2.5 mg daily (N = 203)): 26 (12.8%) n (%) | AMI n (%) ([1]; 4 mg daily (N = 177)): 3 (1.7%) n (%) | Composite endpoint n (%) ([1]; 4 mg daily (N = 177)): 77 (43.5%) n (%) | Death (not related to bleeding) n (%) ([1]; 4 mg daily (N = 177)): 5 (2.8%) n (%) | Recurrent ischemia n (%) (Mortara data) ([1]; 4 mg daily (N = 177)): 63 (35.6%) n (%) | Symptomatic recurrent ischemia n (%) ([1]; 4 mg daily (N = 177)): 33 (18.6%) n (%) | AMI n (%) ([1]; 8 mg daily (N = 173)): 5 (2.9%) n (%) | Composite endpoint n (%) ([1]; 8 mg daily (N = 173)): 71 (41.0%) n (%) | Death (not related to bleeding) n (%) ([1]; 8 mg daily (N = 173)): 1 (0.6%) n (%) | Recurrent ischemia n (%) (Mortara data) ([1]; 8 mg daily (N = 173)): 55 (31.8%) n (%) | Symptomatic recurrent ischemia n (%) ([1]; 8 mg daily (N = 173)): 29 (16.8%) n (%) | AMI n (%) ([1]; 12 mg daily (N = 187)): 4 (2.1%) n (%) | Composite endpoint n (%) ([1]; 12 mg daily (N = 187)): 65 (34.8 %) n (%) | Death (not related to bleeding) n (%) ([1]; 12 mg daily (N = 187)): 1 (0.5%) n (%) | Recurrent ischemia n (%) (Mortara data) ([1]; 12 mg daily (N = 187)): 56 (29.9%) n (%) | Symptomatic recurrent ischemia n (%) ([1]; 12 mg daily (N = 187)): 28 (15.0%) n (%) | AMI n (%) ([1]; All doses pooled (N = 740)): 13 (1.8%) n (%) | Composite endpoint n (%) ([1]; All doses pooled (N = 740)): 274 (37.0%) n (%) | Death (not related to bleeding) n (%) ([1]; All doses pooled (N = 740)): 9 (1.2%) n (%) | Recurrent ischemia n (%) (Mortara data) ([1]; All doses pooled (N = 740)): 221 (29.9%) n (%) | Symptomatic recurrent ischemia n (%) ([1]; All doses pooled (N = 740)): 116 (15.7%) n (%) | efficacy compared with enoxaparin 1 mg/Kg bid ([1]; all fondaparinux sodium doses): at least as effective as enoxaparin | incidence of the composite endpoint ([1]; all fondaparinux sodium groups pooled): 37.0% | dose-response for the primary endpoint ([1]; four fondaparinux sodium groups (2.5, 4.0, 8.0, 12.0 mg)): No dose-response | AMI ([2]; 2.5 mg daily (N = 210)): 1 (0.5%) n (%) | Death (not related to bleeding) ([2]; 2.5 mg daily (N = 210)): 2 (1.0%) n (%) | Death or AMI ([2]; 2.5 mg daily (N = 210)): 3 (1.4%) n (%) | Death or AMI or recurrent ischemia (Symptomatic) ([2]; 2.5 mg daily (N = 210)): 27 (12.9%) n (%) | Recurrent Ischemia (Symptomatic) ([2]; 2.5 mg daily (N = 210)): 26 (12.4%) n (%) | death or AMI compared with the other fondaparinux sodium groups ([2]; 2.5 mg group): fewer patients tended to experience death or AMI | AMI ([2]; 4 mg daily (N = 185)): 3 (1.6%) n (%) | Death (not related to bleeding) ([2]; 4 mg daily (N = 185)): 5 (2.7%) n (%) | Death or AMI ([2]; 4 mg daily (N = 185)): 8 (4.3%) n (%) | Death or AMI or recurrent ischemia (Symptomatic) ([2]; 4 mg daily (N = 185)): 39 (21.1%) n (%) | Recurrent Ischemia (Symptomatic) ([2]; 4 mg daily (N = 185)): 33 (17.8%) n (%) | AMI ([2]; 8 mg daily (N = 183)): 5 (2.7%) n (%) | Death (not related to bleeding) ([2]; 8 mg daily (N = 183)): 1 (0.5%) n (%) | Death or AMI ([2]; 8 mg daily (N = 183)): 6 (3.3%) n (%) | Death or AMI or recurrent ischemia (Symptomatic) ([2]; 8 mg daily (N = 183)): 33 (18.0%) n (%) | Recurrent Ischemia (Symptomatic) ([2]; 8 mg daily (N = 183)): 29 (15.8%) n (%) | AMI ([2]; 12 mg daily (N = 199)): 4 (2.0%) n (%) | Death (not related to bleeding) ([2]; 12 mg daily (N = 199)): 1 (0.5%) n (%) | Death or AMI ([2]; 12 mg daily (N = 199)): 5 (2.5%) n (%) | Death or AMI or recurrent ischemia (Symptomatic) ([2]; 12 mg daily (N = 199)): 30 (15.1%) n (%) | Recurrent Ischemia (Symptomatic) ([2]; 12 mg daily (N = 199)): 28 (14.1%) n (%) | Any bleeding event n (%) ([3]; 2.5 mg daily (N = 229)): 9 (3.9%) n (%) | Major bleeding event n (%) ([3]; 2.5 mg daily (N = 229)): 0 (0.0%) n (%) | Minor bleeding event n (%) ([3]; 2.5 mg daily (N = 229)): 9 (3.9%) n (%) | major bleedings observed ([3]; 2.5 mg group): No major bleedings were observed | Any bleeding event n (%) ([3]; 4 mg daily (N = 222)): 12 (5.4%) n (%) | Major bleeding event n (%) ([3]; 4 mg daily (N = 222)): 3 (1.4%) n (%) | Minor bleeding event n (%) ([3]; 4 mg daily (N = 222)): 9 (4.1%) n (%) | Any bleeding event n (%) ([3]; 8 mg daily (N = 223)): 12 (5.4%) n (%) | Major bleeding event n (%) ([3]; 8 mg daily (N = 223)): 4 (1.8%) n (%) | Minor bleeding event n (%) ([3]; 8 mg daily (N = 223)): 9 (4.0%) n (%) | Any bleeding event n (%) ([3]; 12 mg daily (N = 238)): 11 (4.6%) n (%) | Major bleeding event n (%) ([3]; 12 mg daily (N = 238)): 1 (0.4%) n (%) | Minor bleeding event n (%) ([3]; 12 mg daily (N = 238)): 10 (4.2%) n (%) | differences between fondaparinux sodium groups and the enoxaparin group for safety parameters ([3]; all dose groups): No significant differences | differences between treatment groups for major, minor or any bleeding ([3]; all dose groups vs enoxaparin): No relevant differences | Patients with SAE from First injection Leading to death after day 30 ([4]; 2.5 mg daily (N = 229)): 1 (0.4%) Number (%) | Patients with SAE from First injection Leading to death between first injection and day 30 ([4]; 2.5 mg daily (N = 229)): 3 (1.3%) Number (%) | Total deaths reported ([4]; 2.5 mg daily (N = 229)): 4 (1.7%) Number (%) | Patients with SAE from First injection Leading to death after day 30 ([4]; 4 mg daily (N = 222)): 3 (1.4%) Number (%) | Patients with SAE from First injection Leading to death between first injection and day 30 ([4]; 4 mg daily (N = 222)): 7 (3.2%) Number (%) | Total deaths reported ([4]; 4 mg daily (N = 222)): 10 (4.5%) Number (%) | Patients with SAE from First injection Leading to death after day 30 ([4]; 8 mg daily (N = 223)): 2 (0.9%) Number (%) | Patients with SAE from First injection Leading to death between first injection and day 30 ([4]; 8 mg daily (N = 223)): 4 (1.8%) Number (%) | Total deaths reported ([4]; 8 mg daily (N = 223)): 6 (2.7%) Number (%) | Patients with SAE from First injection Leading to death after day 30 ([4]; 12 mg daily (N = 238)): 1 (0.4%) Number (%) | Patients with SAE from First injection Leading to death between first injection and day 30 ([4]; 12 mg daily (N = 238)): 6 (2.5%) Number (%) | Total deaths reported ([4]; 12 mg daily (N = 238)): 7 (2.9%) Number (%) | differences in the percentage of deaths between treatment groups ([4]; all dose groups vs enoxaparin): No relevant differences
